The record followed here is ChEMBL document CHEMBL5584299, “Undobolins A-L, Ophiobolin-Type Sesterterpenoids from Aspergillus undulatus” (J Nat Prod, 2024).

The test system of test [1] is Splenocyte. As to the kind of experiment: Immunosuppressive activity in BALB/c mouse splenocytes assessed as inhibition of ConA-induced T cell proliferation incubated for 48 hrs by CCK-8 assay. The format is functional, cell-based. (Formazan colour is commonly taken as a measure of viable cells.)
The test system of test [2] is Splenocyte. Put plainly: Immunosuppressive activity in BALB/c mouse splenocytes assessed as inhibition of LPS-induced B cell proliferation incubated for 48 hrs by CCK-8 assay. Type of test: functional, cell-based.
The test system of a further test is RAW264.7. As to the kind of experiment: Antiinflammatory activity against mouse RAW264.7 cells assessed as reduction of LPS-induced NO production preincubated for 2 hrs followed by LPS-stimulation and measured after 12 hrs by Griess reagent assay. The format is functional, cell-based.
The target of test [3] is T1, 3-hydroxy-3-methylglutaryl-coenzyme A reductase (Homo sapiens, UniProt P04035).
T1 sequence (P04035 whole entry): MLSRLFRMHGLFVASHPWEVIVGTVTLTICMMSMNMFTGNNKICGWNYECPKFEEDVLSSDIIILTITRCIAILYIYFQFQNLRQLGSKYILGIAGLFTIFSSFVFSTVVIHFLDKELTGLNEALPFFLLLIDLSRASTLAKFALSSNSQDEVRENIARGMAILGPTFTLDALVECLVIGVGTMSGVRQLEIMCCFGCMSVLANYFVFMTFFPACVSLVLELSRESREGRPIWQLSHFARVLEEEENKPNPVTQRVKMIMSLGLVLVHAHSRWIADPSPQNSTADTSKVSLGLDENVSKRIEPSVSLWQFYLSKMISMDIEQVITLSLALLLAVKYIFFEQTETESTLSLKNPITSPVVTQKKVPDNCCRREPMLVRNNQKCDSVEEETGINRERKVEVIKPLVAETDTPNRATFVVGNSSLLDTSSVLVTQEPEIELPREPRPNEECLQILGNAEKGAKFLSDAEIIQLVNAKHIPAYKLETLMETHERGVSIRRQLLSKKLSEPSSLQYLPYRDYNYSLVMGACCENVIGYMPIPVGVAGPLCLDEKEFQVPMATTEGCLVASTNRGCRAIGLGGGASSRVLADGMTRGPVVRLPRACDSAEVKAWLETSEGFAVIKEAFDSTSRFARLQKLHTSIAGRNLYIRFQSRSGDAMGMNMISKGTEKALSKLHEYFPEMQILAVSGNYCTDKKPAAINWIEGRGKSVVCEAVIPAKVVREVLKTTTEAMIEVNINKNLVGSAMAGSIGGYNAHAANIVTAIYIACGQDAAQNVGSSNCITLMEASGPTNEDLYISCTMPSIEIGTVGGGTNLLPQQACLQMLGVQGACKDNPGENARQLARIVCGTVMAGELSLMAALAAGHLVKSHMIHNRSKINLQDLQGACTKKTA
Put plainly: Inhibition of human HMGR.

A further test deals with Candida albicans. Put plainly: Antifungal activity against Candida albicans ATCC10231 assessed as reduction in microbial growth incubated for 16 hrs by broth microdilution method. Type of test: functional. (Broth dilution looks for growth in wells or tubes with falling amounts of substance.)

pIC50: −log10 of the molar value.

One may read the pIC50 as the IC50 on a negative log10 scale, so that one unit is a factor of ten. `CC(C)=C/C=C\[C@H](C)[C@H]1CC[C@]2(C)C[C@@]3(O)[C@H](C)CC[C@@H]3/C(CO)=C\C[C@@H]12`: the results for the pIC50 with Splenocyte [1], with Splenocyte [2] and with RAW264.7 were 4.81, below 4.40 and below 4.40, respectively.

Turning to `C[C@@H]1C[C@H]2[C@@H]3CCC4=CC(=O)C=C[C@]4(C)[C@@]3(F)[C@@H](O)C[C@]2(C)[C@@]1(O)C(=O)CO` [DEXAMETHASONE], the negative-log IC50 (pIC50) was 7.40 in the test on Splenocyte [1] and 6.33 with Splenocyte [2].

Consider `CC(C)=CCC[C@H](C)[C@H]1CC[C@]2(C)C[C@@]3(O)[C@H](C)CC[C@@H]3/C(CO)=C\C[C@@H]12`, for which the negative logarithm of the IC50 (pIC50) in the test with Splenocyte [1], in the test on Splenocyte [2] and in the test on RAW264.7 was below 4.40 in each case.

In the case of `CC1=CC(=O)[C@H]2/C(CO)=C\C[C@H]3[C@@H]([C@@H](C)/C=C\[C@@H]4OC4(C)C)CC[C@]3(C)C[C@H]12`, the pIC50 with Splenocyte [1], in the test on Splenocyte [2] and in the test on RAW264.7 was below 4.40 throughout.

On to `CC(C)=C/C=C\[C@H](C)[C@H]1CC[C@]2(C)C[C@@H]3C(=O)C=C4C3=C(CC[C@@H]12)C(=O)N4CCO`, for which the pIC50 with Splenocyte [1] was below 4.40; with Splenocyte [2], 4.60; in the test on RAW264.7, below 4.40.

For the compound `C=C1[C@H]2[C@H](O)C[C@@](C)(O)[C@H]2C[C@@]2(C)CC[C@H]([C@@H](C)CC/C=C(\C)C(=O)O)[C@@H]2C[C@@H]1O`, the pIC50 in the test with Splenocyte [1] is 4.97; in the test on Splenocyte [2], below 4.40; with RAW264.7, below 4.40.

The MIC is the lowest concentration found to suppress growth. `CC(C)=C[C@H]1C[C@H](C)[C@]2(CC[C@]3(C)C[C@@H]4C(=O)C=C5C4=C(CC[C@H]32)C(=O)N5CCO)O1` had a pIC50 in test [3] of 5.60. Besides, the minimal inhibitory concentration (MIC) in the test on Candida albicans is 4 µg/mL.

For `C=C1[C@H]2CC[C@@](C)(O)[C@H]2C[C@@]2(C)CC[C@H]([C@@H](C)CC/C=C(\C)CO)[C@@H]2C[C@@H]1O`, the pIC50 is below 4.40 in the test with Splenocyte [1], 4.71 in the test on Splenocyte [2] and below 4.40 with RAW264.7.

Consider `CC(C)=C/C=C\[C@H](C)[C@H]1CC[C@]2(C)C[C@@H]3C(C)=CC(=O)[C@H]3[C@H](CO)CC[C@@H]12`, for which the negative logarithm of the IC50 (pIC50) with Splenocyte [1] is below 4.40; with Splenocyte [2], below 4.40; with RAW264.7, 5.08.

Consider `CC(C)=C/C=C\[C@H](C)[C@H]1CC[C@]2(C)C[C@@]3(O)[C@H](C)C[C@@H](O)[C@@H]3/C(CO)=C\C[C@@H]12`, for which the negative-log IC50 (pIC50) in the test on Splenocyte [1] was 4.45; in the test with Splenocyte [2] it was below 4.40; in the test with RAW264.7, below 4.40.

Turning to `C/C1=C/C[C@H]2[C@@H]([C@@H](C)CC/C=C(\C)CO)CC[C@]2(C)C[C@@]2(O)[C@H](C)CC[C@H]12`, the pIC50 in the test on Splenocyte [1] is 5.64; with Splenocyte [2], below 4.40; in the test with RAW264.7, below 4.40.

As for `C=C1[C@H]2[C@@H](O)C[C@@](C)(O)[C@H]2C[C@@]2(C)CC[C@H]([C@@H](C)CC/C=C(\C)C(=O)O)[C@@H]2C[C@@H]1O`, the negative logarithm of the IC50 (pIC50) in the test with Splenocyte [1], in the test on Splenocyte [2] and with RAW264.7 was below 4.40 in each case.

On to `CC(C)=C/C=C/[C@H](C)[C@H]1CC[C@]2(C)C[C@@]3(O)[C@H](C)C[C@@H](O)[C@@H]3/C(CO)=C\C[C@@H]12`, for which the pIC50 in the test on Splenocyte [1], with Splenocyte [2] and with RAW264.7 was below 4.40 throughout.

For `CC1=CC(=O)/C2=C(\CO)CC[C@H]3[C@@H]([C@@H](C)CC/C=C(\C)C(=O)O)CC[C@]3(C)C[C@H]12`, the negative-log IC50 (pIC50) with Splenocyte [1], with Splenocyte [2] and in the test with RAW264.7 was below 4.40 each time.
